# Reference: patent US7537906B2, “Apoptosis inducer and method of screening for a substance inhibiting acylated homoserine lactone” (priority 2003, dated 2009)
# Experiments:
# Akt [1] = assay: Akt activity (phospho-Akt) by Western blot in CaCo-2 cells; assay type: cell-based, human
# Method: CaCo-2, the carcinoma cell line of human colon cancer, was purchased from American Type Culture Collection (ATCC), and cultured at 37° C. in the presence of 5% CO2 using a DMEM medium containing 10% FCS, 1% NEAA, and 1% P/S (100 units/ml penicillin and 100 μg/ml streptomycin).
# 6×10^5 CaCo-2 cells were inoculated per dish using 6 cm dishes (NUNC), washed twice with phosphate buffered saline (PBS) (-), and then cultured for 24 hours in a serum-free DMEM medium containing 1% NEAA. Subsequently, at a final concentration of 100 μM, homoserine lactone hydrochloride, N-butyryl-L-homoserine lactone, N-(3-oxohexanoyl)-L-homoserine lactone and N-(3-oxododecanoyl)-L-homoserine lactone were each added, and then each solution was allowed to react for 10 minutes. In addition, purified acylated homoserine lactone that was used herein had been dissolved in DMSO in a concentration 400 times higher than the target final concentration, and then subjected to filter sterilization (φ 0.22 μm). DMSO at a final concentration of 0.25% was used as a control. In addition, α-tubulin was used as an internal standard.
# After reaction, the product was washed twice with cold PBS (-), and then frozen at −80° C. The cells were thawed on ice, 200 μl of a lysis buffer (50 mM HEPES, pH7.5, 50 mM NaCl, 1 mM EDTA, 1.5 mM MgCl2, 1% Triton X-100, 10% glycerine, 10 mM sodium pyrophosphate, 1 mM Na3VO4, 100 mM NaF, 1 mM PMSF, 10 μg/ml aprotinin and 10 μg/ml leupeptin) was added, and then the cells were scraped off using a scraper. The cells were allowed to stand on ice for 20 minutes, and then centrifuged at 14,000 rpm at 4° C. for 15 minutes, thereby collecting the supernatant. Concentration of the collected protein was measured, and protein equivalent to 50 μg was subjected to SDS-PAGE. After electrophoresis, the product was blotted on a PVDF membrane. When phospho-Akt was measured, blocking was carried out with 5% skim milk/Tris-buffered saline containing 0.1% Tween 20 (TBS-T), and the anti-phospho-Akt ([…]) antibody and the HRP-labeled anti-rabbit IgG antibody were used as a primary antibody and a secondary antibody, respectively. For α-tubulin used as an internal standard, blocking was carried out with 5% bovine serum albumin (BSA)/TBS-T, and the anti-α-tubulin (Ab-1) and the HRP-labeled anti-mouse IgG antibody were used as a primary antibody and a secondary antibody, respectively. For band detection, Renaissance™ Western Blot Chemiluminescence […] Reagent Plus (NEN) or Western Blotting Luminol Reagent (SANTA CRUZ BIOTECHNOLOGY) was used. […] In addition in the figure that is described below, HSL means homoserine lactone hydrochloride, C4-HSL means N-butyryl-L-homoserine lactone, 3-oxo-C6-HSL means N-(3-oxohexanoyl)-L-homoserine lactone, and 3-oxo-C12-HSL means N-(3-oxododecanoyl)-L-homoserine lactone.
# After cell culture, N-(3-oxododecanoyl)-L-homoserine lactones with final concentrations of 0 μM (0.25% DMSO), 1 μM, 10 μM, 30 μM and 100 μM were each added. Akt activity was analyzed by Western blot in a manner similar to that used in (1), except for carrying out reaction for 10 minutes (FIG. 2).
# After cell culture, N-(3-oxododecanoyl)-L-homoserine lactones with final concentrations of 30 μM and 100 μM were each added. For each case, Akt activity was measured by Western blot in a manner similar to that in (1), except for carrying out stimulation with acylated homoserine lactone in a short time course of 0, 5, 10, 30 and 60 minutes (FIG. 4), and in a long time course of 0, 10 minutes, 60 minutes, 2 hours, 4 hours, 6 hours, 8 hours and 10 hours (FIG. 5). In the case of stimulation at 30 μM, the inhibition of Akt activity peaked at 5 minutes, and lasted until 60 minutes after stimulation, and then returned to the base level within 2 hours. On the other hand, in the case of stimulation at […], the inhibition of Akt activity peaked at 5 minutes and lasted until 6 hours after stimulation. […]
# Akt [2] = assay: Akt activity by Western blot in porcine vascular endothelial cells (PECs); assay type: cell-based; conditions: 100 μM, 10 minutes
# Method: Porcine vascular endothelial cells (PECs) were cultured at 37° C. in the presence of 5% CO2 using a DMEM medium containing 10% FCS, 1% NEAA and 1% P/S (100 units/ml penicillin and 100 μg/ml streptomycin).
# 6×10^5 PECs were inoculated per dish using 6 cm dishes (NUNC), washed twice with phosphate buffered saline (PBS) (-), and then cultured for 24 hours in a serum-free DMEM medium containing 1% NEAA. Subsequently, at a final concentration of 100 μM, homoserine lactone hydrochloride, N-butyryl-L-homoserine lactone, N-(3-oxohexanoyl)-L-homoserine lactone and N-(3-oxododecanoyl)-L-homoserine lactone were each added, and then each solution was allowed to react for 10 minutes. Similarly to (1), the effect of acylated homoserine lactone on Akt activity in PECs were examined by Western blotting.
# CaCo-2 cells [3] = assay: Chromatin condensation and determination of apoptosis by Hoechst33342 staining; assay type: cell-based, human; conditions: 12 hours of culture
# Method: 2×10^4 CaCo-2 cells were inoculated on an 8-well culture slide (Collagen I Cellware BioCoat, Becton Dickinson), washed twice with PBS (-), and then cultured in a serum-free DMEM medium containing 1% NEAA for 24 hours. 3-oxododecanoyl homoserine lactone was added at each concentration (1 to 100 μM). After 12 hours of culture, the cells were fixed by 4% paraformaldehyde-3% sucrose/PBS, chromatin staining was carried out using Hoechst 33342 fluorescent dye, and then the cells were observed under a fluorescence microscope. With a magnification of ×400, 5 visual fields were selected at random. Apoptotic cells and normal cells were counted and the proportion of apoptotic cells was calculated. These steps were denoted as n=1, and conducted 3 times or more.
# CaCo-2 cells [4] = assay: Effects of kinase inhibitors on N-(3-oxododecanoyl)-L-homoserine lactone-dependent apoptosis, viability by Trypan blue staining; assay type: cell-based, human; conditions: 30 μM alone, 12 hours, control 96%
# Method: 2×10^5 CaCo-2 cells were inoculated per 3.5 cm dish, cultured for 12 hours in the presence of 10% serum, washed twice with PBS (-), and then synchronously cultured in a serum-free medium for 24 hours. Pretreatment with various inhibitors (50 μM PD98059 and 20 μM SB203580) or DMSO was carried out for 30 minutes. Then 30 μM N-(3-oxododecanoyl)-L-homoserine lactone or DMSO was added, the cells were cultured for 12 hours, and then viability was measured by Trypan blue staining.
# IL-12 = conditions: mouse macrophage culture system; cited from earlier work
compound,measurement,setting,value
CCCCCCCCCC(=O)CC(=O)N[C@H]1CCOC1=O [N-(3-oxododecanoyl)-L-homoserine lactone],"Akt activity, % of that where no stimulation was provided","Akt [1]; 10 μM, 10 minutes",79%
same,"Akt activity, % of that where no stimulation was provided","Akt [1]; 30 μM, 10 minutes",31%
same,"Akt activity, % of that where no stimulation was provided","Akt [1]; 100 μM, 10 minutes",14%
same,level of phosphorylated Akt,"Akt [1]; 100 μM, 10 minutes",significantly decreased
same,concentration at which levels of phosphorylated Akt significantly decreased,Akt [1]; 10 minutes,≥ 10 µM
same,time at which inhibition of Akt activity peaked,Akt [1]; stimulation at 10 μM,5 min
same,inhibition of Akt activity lasted until (after stimulation),Akt [1]; stimulation at 30 μM,60 min
same,time at which inhibition of Akt activity peaked,Akt [1]; stimulation at 30 μM,5 min
same,time for Akt activity to return to the base level,Akt [1]; stimulation at 30 μM,≤ 2 h
same,inhibition of Akt activity lasted until (after stimulation),Akt [1]; stimulation at 100 μM,360 min
same,time at which inhibition of Akt activity peaked,Akt [1]; stimulation at 100 μM,5 min
same,Akt activity in PECs,Akt [2],significantly decreases
same,cell morphology by Hoechst 33342 staining,CaCo-2 cells [3]; 1 μM,only normal cells were observed
same,proportion of apoptotic cells to the total cell count,CaCo-2 cells [3]; 10 μM,15%
same,proportion of apoptotic cells to the total cell count,CaCo-2 cells [3]; 30 μM,39%
same,proportion of apoptotic cells to the total cell count,CaCo-2 cells [3]; 100 μM,50%
same,concentration at which apoptotic cells exhibiting chromatin condensation were observed,CaCo-2 cells [3],≥ 10 µM
same,viability,CaCo-2 cells [4],49%
same,IL-12 production,IL-12,promotes
